A value given as a limit tells only on which side of the number the result lay.

A short description of the series: dermal toxicity. It is filed as in vivo. Conditions: species and method not stated.

As to `CCN(CC)[P+](N(CC)CC)(N(CC)CC)N(CC)CC.[Br-]` [tetrakis(diethylamino)phosphonium bromide, reference compound], the dermal toxicity was below 50 mg/kg body weight.

Consider `C1CCN([P+](N2CCCCC2)(N2CCCCC2)N2CCCCC2)CC1.[Cl-]` [tetrakis(piperidino)phosphonium chloride], for which the dermal toxicity is around 200 mg/kg body weight.

Molecule `C1CCN([P+](N2CCCC2)(N2CCCC2)N2CCCC2)C1.[Cl-]` [tetrakis(pyrrolidino)phosphonium chloride] displayed a dermal toxicity of around 390 mg/kg body weight.

The values are drawn from patent US6407029B1, “Mixtures comprising tetrakis(pyrrolidino/piperdino)phosphonium salts” (priority 1999, dated 2002).
